Biological target: T1, estrogen receptor (Homo sapiens, UniProt P03372)
T1 construct: endogenous in cells; host or cells: ECC-1 cells
T1 sequence (P03372 1-595): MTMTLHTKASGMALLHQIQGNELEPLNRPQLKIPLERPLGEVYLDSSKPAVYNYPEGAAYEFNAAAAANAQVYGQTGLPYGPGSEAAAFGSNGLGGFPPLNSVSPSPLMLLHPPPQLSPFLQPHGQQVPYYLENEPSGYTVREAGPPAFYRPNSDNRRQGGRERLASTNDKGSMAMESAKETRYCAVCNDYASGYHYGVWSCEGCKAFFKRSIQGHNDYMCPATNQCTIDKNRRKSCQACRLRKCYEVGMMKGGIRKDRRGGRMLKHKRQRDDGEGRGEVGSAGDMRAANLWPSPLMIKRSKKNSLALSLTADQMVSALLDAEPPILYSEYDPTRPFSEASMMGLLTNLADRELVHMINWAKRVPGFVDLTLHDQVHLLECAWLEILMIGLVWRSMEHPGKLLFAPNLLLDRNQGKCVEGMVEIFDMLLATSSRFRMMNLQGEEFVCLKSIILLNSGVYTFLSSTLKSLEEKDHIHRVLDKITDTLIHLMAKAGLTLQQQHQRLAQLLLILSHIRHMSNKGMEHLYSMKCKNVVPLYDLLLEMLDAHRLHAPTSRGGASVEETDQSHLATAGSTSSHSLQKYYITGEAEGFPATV
Experiment: AP assay (alkaline phosphatase activity in ECC-1 cells), agonist mode (absence of E2) and antagonist mode (presence of 500 pM E2)
Type: cell-based
Settings: 3 days, AP activity normalized to 500 pM E2 alone, agonist and antagonist mode combined
Experimental: ECC-1 cells were trypsinized and resuspended in hormone-depleted media and plated at a density of 15 k cells per well into a 96-well plate for at least 4 hours. Cells were treated with test compounds in the absence of E2 (for agonist mode) or in the presence of 500 pM E2 (for antagonist mode) for 3 days and plates were subsequently frozen at −80 °C. Thawed plates were incubated with a chromogenic substrate of AP, p-nitrophenyl phosphate (Thermo Fisher Scientific), for 40 minutes at 42 °C, and absorbances were read at 405 nm. AP activity was normalized to the activity of 500 pM E2 alone.
The compound numbers correspond to the compound numbers of Table 1 and 2. Compounds having an activity designated as “+” provided estrogen receptor agonism having (i) at least 80% increase in the E2-normalized signal in the AP assay (agonist mode) and (ii) no more than 80% reduction in the E2-normalized signal in the AP assay (antagonist mode). Compounds having an activity designated as “++” provided estrogen receptor antagonism having (i) between 10% and 80% increase in the E2-normalized signal in the AP assay (agonist mode) and (ii) between 10% and 80% reduction in the E2-normalized signal in the AP assay (antagonist mode).

SMILES	Activity (estrogen receptor modulation, e.g., agonism and antagonism)
C[C@@H]1Cc2c([nH]c3ccccc23)[C@@H](c2n[nH]c3cc(CN4CC(CF)C4)ccc23)N1CC(F)F [Compound I-36, (1S,3R)-2-(2,2-difluoroethyl)-1-(6-((3-(fluoromethyl)azetidin-1-yl)methyl)-1H-indazol-3-yl)-3-methyl-2,3,4,9-tetrahydro-1H-pyrido[3,4-b]indole]	++ (estrogen receptor antagonism having (i) between 10% and 80% increase in the E2-normalized signal in the AP assay (agonist mode) and (ii) between 10% and 80% reduction in the E2-normalized signal in the AP assay (antagonist mode))
CC1CN(Cc2ccc3c([C@@H]4c5[nH]c6ccccc6c5C[C@@H](C)N4CC(F)F)n[nH]c3c2)C1 [Compound I-37, (1S,3R)-2-(2,2-difluoroethyl)-3-methyl-1-(6-((3-methylazetidin-1-yl)methyl)-1H-indazol-3-yl)-2,3,4,9-tetrahydro-1H-pyrido[3,4-b]indole]	++ (estrogen receptor antagonism having (i) between 10% and 80% increase in the E2-normalized signal in the AP assay (agonist mode) and (ii) between 10% and 80% reduction in the E2-normalized signal in the AP assay (antagonist mode))
C[C@@H]1Cc2c([nH]c3ccccc23)[C@@H](c2n[nH]c3cc(CN4CC5(COC5)C4)ccc23)N1CC(F)F [Compound I-39, 6-((3-((1S,3R)-2-(2,2-difluoroethyl)-3-methyl-2,3,4,9-tetrahydro-1H-pyrido[3,4-b]indol-1-yl)-1H-indazol-6-yl)methyl)-2-oxa-6-azaspiro[3.3]heptane]	++ (estrogen receptor antagonism having (i) between 10% and 80% increase in the E2-normalized signal in the AP assay (agonist mode) and (ii) between 10% and 80% reduction in the E2-normalized signal in the AP assay (antagonist mode))
C[C@@H]1Cc2c([nH]c3ccccc23)[C@@H](c2ccc3[nH]c(CN4CC(CF)C4)cc3c2)N1CC(C)(C)F [Compound I-40, (1R,3R)-1-[2-[[3-(fluoromethyl)azetidin-1-yl]methyl]-1H-indol-5-yl]-2-(2-fluoro-2-methyl-propyl)-3-methyl-1,3,4,9-tetrahydropyrido[3,4-b]indole]	+++ (estrogen receptor antagonism (i) with pIC50 greater than 7.5 and at least a 10% reduction in the E2-normalized signal in the AP assay (antagonist mode); and (ii) no more than 10% increase in E2-normalized signal in the AP assay (agonist mode))
C[C@@H]1Cc2c([nH]c3ccccc23)[C@@H](c2cc3cc(CN4CC(CF)C4)ccc3[nH]2)N1CC(C)(C)F [Compound I-41, (1R,3R)-1-[5-[[3-(fluoromethyl)azetidin-1-yl]methyl]-1H-indol-2-yl]-2-(2-fluoro-2-methyl-propyl)-3-methyl-1,3,4,9-tetrahydropyrido[3,4-b]indole]	++ (estrogen receptor antagonism having (i) between 10% and 80% increase in the E2-normalized signal in the AP assay (agonist mode) and (ii) between 10% and 80% reduction in the E2-normalized signal in the AP assay (antagonist mode))
CC1CN(Cc2cc3cc([C@@H]4c5[nH]c6ccccc6c5C[C@@H](C)N4CC(C)(C)F)ccc3[nH]2)C1 [Compound I-42, (1R,3R)-2-(2-fluoro-2-methyl-propyl)-3-methyl-1-[2-[(3-methylazetidin-1-yl)methyl]-1H-indol-5-yl]-1,3,4,9-tetrahydropyrido[3,4-b]indole]	++ (estrogen receptor antagonism having (i) between 10% and 80% increase in the E2-normalized signal in the AP assay (agonist mode) and (ii) between 10% and 80% reduction in the E2-normalized signal in the AP assay (antagonist mode))
C[C@@H]1Cc2c([nH]c3ccccc23)[C@@H](c2ccc3[nH]c(CN4CC5CC5C4)cc3c2)N1CC(C)(C)F (stereo partly drawn) [Compound I-43, (1R,3R)-1-[2-(3-azabicyclo[3.1.0]hexan-3-ylmethyl)-1H-indol-5-yl]-2-(2-fluoro-2-methyl-propyl)-3-methyl-1,3,4,9-tetrahydropyrido[3,4-b]indole]	+ (estrogen receptor agonism having (i) at least 80% increase in the E2-normalized signal in the AP assay (agonist mode) and (ii) no more than 80% reduction in the E2-normalized signal in the AP assay (antagonist mode))
C[C@@H]1Cc2c([nH]c3ccccc23)[C@@H](c2ccc3[nH]c(CN4CC5(CCC5)C4)cc3c2)N1CC(C)(C)F [Compound I-44, (1R,3R)-1-[2-(2-azaspiro[3.3]heptan-2-ylmethyl)-1H-indol-5-yl]-2-(2-fluoro-2-methyl-propyl)-3-methyl-1,3,4,9-tetrahydropyrido[3,4-b]indole]	++ (estrogen receptor antagonism having (i) between 10% and 80% increase in the E2-normalized signal in the AP assay (agonist mode) and (ii) between 10% and 80% reduction in the E2-normalized signal in the AP assay (antagonist mode))
C[C@@H]1Cc2c([nH]c3ccccc23)[C@@H](c2ccc3[nH]c(CN4CC(CF)C4)cc3c2)N1CC(F)(F)CO [Compound I-45, 2,2-difluoro-3-[(1R,3R)-1-[2-[[3-(fluoromethyl)azetidin-1-yl]methyl]-1H-indol-5-yl]-3-methyl-1,3,4,9-tetrahydropyrido[3,4-b]indol-2-yl]propan-1-ol]	+++ (estrogen receptor antagonism (i) with pIC50 greater than 7.5 and at least a 10% reduction in the E2-normalized signal in the AP assay (antagonist mode); and (ii) no more than 10% increase in E2-normalized signal in the AP assay (agonist mode))
CC1CN(Cc2cc3cc([C@@H]4c5[nH]c6ccccc6c5C[C@@H](C)N4CC(F)(F)CO)ccc3[nH]2)C1 [Compound I-46, 2,2-difluoro-3-[(1R,3R)-3-methyl-1-[2-[(3-methylazetidin-1-yl)methyl]-1H-indol-5-yl]-1,3,4,9-tetrahydropyrido[3,4-b]indol-2-yl]propan-1-ol]	+++ (estrogen receptor antagonism (i) with pIC50 greater than 7.5 and at least a 10% reduction in the E2-normalized signal in the AP assay (antagonist mode); and (ii) no more than 10% increase in E2-normalized signal in the AP assay (agonist mode))
C[C@@H]1Cc2c([nH]c3ccccc23)[C@@H](c2ccc3[nH]c(CN4CC[C@H](F)C4)cc3c2)N1CC(C)(C)F [Compound I-47, (1R,3R)-2-(2-fluoro-2-methyl-propyl)-1-[2-[[(3S)-3-fluoropyrrolidin-1-yl]methyl]-1H-indol-5-yl]-3-methyl-1,3,4,9-tetrahydropyrido[3,4-b]indole]	+ (estrogen receptor agonism having (i) at least 80% increase in the E2-normalized signal in the AP assay (agonist mode) and (ii) no more than 80% reduction in the E2-normalized signal in the AP assay (antagonist mode))
C[C@@H]1Cc2c([nH]c3ccccc23)[C@@H](c2ccc3[nH]c(CN4CC(C(C)(C)O)C4)cc3c2)N1CC(C)(C)F [Compound I-48, 2-[1-[[5-[(1R,3R)-2-(2-fluoro-2-methyl-propyl)-3-methyl-1,3,4,9-tetrahydropyrido[3,4-b]indol-1-yl]-1H-indol-2-yl]methyl]azetidin-3-yl]propan-2-ol]	+ (estrogen receptor agonism having (i) at least 80% increase in the E2-normalized signal in the AP assay (agonist mode) and (ii) no more than 80% reduction in the E2-normalized signal in the AP assay (antagonist mode))
C[C@@H]1Cc2c([nH]c3ccccc23)[C@@H](c2ccc3[nH]c(CN4CC5(C4)CC(O)(C(F)F)C5)cc3c2)N1CC(C)(C)F [Compound I-49, 6-(difluoromethyl)-2-[[5-[(1R,3R)-2-(2-fluoro-2-methyl-propyl)-3-methyl-1,3,4,9-tetrahydropyrido[3,4-b]indol-1-yl]-1H-indol-2-yl]methyl]-2-azaspiro[3.3]heptan-6-ol]	+ (estrogen receptor agonism having (i) at least 80% increase in the E2-normalized signal in the AP assay (agonist mode) and (ii) no more than 80% reduction in the E2-normalized signal in the AP assay (antagonist mode))
C[C@@H]1Cc2c([nH]c3ccccc23)[C@@H](c2ccc3[nH]c(CN4CC(C#N)C4)cc3c2)N1CC(C)(C)F [Compound I-50, 1-[[5-[(1R,3R)-2-(2-fluoro-2-methyl-propyl)-3-methyl-1,3,4,9-tetrahydropyrido[3,4-b]indol-1-yl]-1H-indol-2-yl]methyl]azetidine-3-carbonitrile]	+ (estrogen receptor agonism having (i) at least 80% increase in the E2-normalized signal in the AP assay (agonist mode) and (ii) no more than 80% reduction in the E2-normalized signal in the AP assay (antagonist mode))

From patent publication US20260355165A1, “2,3,4,9-TETRAHYDRO-1H-PYRIDO[3,4-B]INDOLE DERIVATIVES AS ESTROGEN RECEPTOR MODULATORS FOR THE TREATMENT OF CANCER” (Olema Pharmaceuticals, Inc., priority 2022, published 2026)
